Test results: patent US20220354818A1, “METHODS FOR TREATING BRAIN INJURY OR COGNITIVE DYSFUNCTION BY PHARMACOLOGICAL ENHANCMENT OF M-TYPE POTASSIUM ION CURRENTS IN NEURONS” (Advanced Neuroresearch Therapeutics LLC, priority 2019, published 2022)
Entries after “also recorded” stand apart in the source; their conditions may differ.

Columns and labels:
[1] = tested on: cortical neurons; assay: In vivo two-photon calcium imaging of cortical neurons through a cranial window after TBI; conditions: living mouse brain
From the text: Referring now to FIG. 9, another embodiment of the present invention concerns in vivo imaging of intracellular calcium levels in neurons from living brain in vivo, as a reporter of activity/hyperactivity. The genetically-encoded calcium reporter, GCaMP6f, was used in transgenic mice in which the reporter is expressed in critical subsets of brain neurons, allowing in vivo recordings of neurons of living brain, as a reporter of activity/hyperactivity in cortex induced by TBI, the first event in the hypothesis of the present invention, which causes TBI-induced brain damage (See, e.g., FIG. 1). For these experiments two-photon confocal live imaging of mouse cortical neurons through a cortical window was used. Live video records of the activity of cortical neurons in mice before and after TBI were made.

[2] = tested on: mice subjected to one blunt TBI (CCCI); assay: Dosage optimization: spontaneous myoclonic seizures after one blunt TBI (CCCI); format: in vivo, mouse; conditions: RL648_81 0.03, 0.1 and 0.3 mg/kg i.p. once 30 minutes post-TBI
Description: An additional KCNQ2/3-specific compound, RL648_81 was also administered in the same manner (0.03 mg/kg, 0.1 mg/kg, and 0.3 mg/kg). […] To monitor the occurrence of spontaneous myoclonic seizures after, the mice were video/EEG monitored from the second to the fourth day after the TBI (72 hours total).

[3] = tested on: mice subjected to one blunt TBI, pentylenetetrazol (PTZ); assay: PTZ-induced seizure susceptibility after one blunt TBI (CCCI); format: in vivo, mouse; conditions: RL648_81 at 0.1 mg/kg; PTZ 35 mg/kg s.c. fifth day post-TBI
From the text: Stimulation with PTZ induced the occurrence of clonic and tonic-clonic seizures in TBI-subjected mice.

[4] = tested on: neurons of the dentate gyrus of the hippocampus; assay: Ex vivo brain-slice calcium imaging (GCaMP6f) with kainic acid stimulation after TBI; format: in vivo, mouse; conditions: RL648_81 30 minutes after blunt TBI
Description: In another embodiment of the present invention, ex vivo imaging of intracellular calcium levels in neurons, which are a reporter of activity or hyper-activity of neurons, were assayed in the brain slices using transgenic mice expressing the genetically encoded indicator of calcium levels, GCaMP6f expressed only in neurons.
Turning now to FIG. 8, the chemo-convulsant, kainic acid (KA), was used to stimulate neurons from brain slices of the dentate gyms (DG) of the hippocampus (the part of the brain where most new memories are thought to form) from sham mice, mice subjected to a TBI but not drug or TBI followed by RL-648_81.

[5] = tested on: sympathetic neuron; assay: Action potential firing in a sympathetic neuron, current-clamp
From the text: Various currents are applied in “current-clamp” mode 44 ranging from 50 pA to −100 pA, and the resulting AP firing recorded.

Structure (SMILES)	TBI-induced hyper-excitability in cortex imaged in vivo [1]	occurrence of TBI-induced myoclonic seizures [2]	occurrence of PTZ-induced seizures [3]	TBI-induced increase in hyper-activity in response to kainic acid stimulation (hippocampal slices, ex vivo) [4]	action potential firing in response to stimuli [5]
CCOC(=O)Nc1ccc(NCc2ccc(C(F)(F)F)cc2)c(F)c1N [RL648_81]	prevents TBI-induced hyper-excitability in cortex	measurably reduced the occurrence of TBI-induced myoclonic seizures	completely blocked the occurrence of PTZ-induced seizures	reduces the increased seizure susceptibility in brain slices; also recorded: completely abolished	
O=C1N(c2ccccc2)c2ccccc2C1(Cc1ccncc1)Cc1ccncc1 [leopardine]					out-of-control AP firing
